# Test results as given in US12528814B2, “Bifunctional degraders of interleukin-1 receptor-associated kinases and therapeutic use thereof” (NURIX THERAPEUTICS, INC., priority 2020, dated 2026).
# Read-outs that look alike come from different tables or passages of the source.
# Columns and labels:
# IRAK4 [1] = molecular target: T1, IRAK4 (Homo sapiens (Human), UniProt Q9NWZ3); experiment: IRAK4 Biochemical HTRF Kinase Assay; conditions: read-out: IRAK4 HTRF biochemical: IC50
# Procedure, shortened: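 HTRF KinEASE STK S1 format measuring IRAK4 phosphorylation of biotinylated peptide; reaction solution of 5 μM STK-S1, 10 mM ATP, 10 mM MgCl2 added (stock, to 10 μl final), 90 min at ambient temperature, detection 60 min. IC50 from sixteen-point duplicate curves by non-linear regression.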
# Target sequence in this assay (Q9NWZ3 whole entry, species assumed): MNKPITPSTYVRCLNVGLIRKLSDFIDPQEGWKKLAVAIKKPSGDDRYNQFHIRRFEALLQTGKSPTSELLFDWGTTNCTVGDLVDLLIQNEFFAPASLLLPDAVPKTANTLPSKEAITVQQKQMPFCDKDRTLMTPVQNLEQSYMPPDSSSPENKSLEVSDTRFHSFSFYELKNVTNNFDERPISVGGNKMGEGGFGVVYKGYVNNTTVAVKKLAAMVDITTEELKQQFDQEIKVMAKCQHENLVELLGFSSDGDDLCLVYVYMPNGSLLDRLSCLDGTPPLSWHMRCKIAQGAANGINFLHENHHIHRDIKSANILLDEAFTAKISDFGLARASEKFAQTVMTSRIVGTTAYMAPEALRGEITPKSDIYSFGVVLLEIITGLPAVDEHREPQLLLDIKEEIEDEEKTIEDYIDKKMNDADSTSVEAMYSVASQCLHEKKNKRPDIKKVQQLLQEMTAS
# IRAK4 [2] = molecular target: T1, IRAK4; experiment: IRAK4 Degradation HiBiT Assay; conditions: HiBiT-tagged Jurkat cells, 4 hrs; for Dmax: Jurkat; for DC50: read-out: Cellular IRAK4 HiBiT: DC50
# Target sequence in this assay (Q9NWZ3 whole entry): as the sequence (Q9NWZ3 whole entry, species assumed) above
# Procedure: Compound dilution series (11-point, 3.16-fold dilutions in DMSO, columns 1-11 and 12-22) at 500× the final required concentrations were prepared in Labcyte LDV 384-well plates (cat. no. LP-0200) using a Labcyte Echo 550 Liquid Handler. The 500× solutions ranged from 5 mM to 0.5 μM (final assay concentration range 10 μM to 0.1 nM). Using the Echo, the 500× solutions were stamped into white, 384-well assay plates (Corning, cat. no. 3570) at 60 nL/well. […] C-terminal HiBiT-tagged Jurkat cells (polyclonal cell line or clone 8D5) were plated at 1×10^6 cells/mL, 30 μL/well (3×10^4 cells/well) in complete RPMI (10% FBS, 1% L-glutamine). Cells were incubated for 4 hrs at 32° C./6% CO2.
# Following incubation, 30 uL of complete Nano-Glo HiBiT Lytic Detection Reagent (Nano-Glo HiBiT Lytic Buffer with 1:50 Nano-Glo HiBiT Lytic Substrate and 1:100 LgBiT Protein; Promega cat. no. N3040) was added. Cells were further incubated for 10 min at room temperature (RT). Luminescence units (LU) were read on an EnVision plate reader (Perkin Elmer, 0.1 sec per well). Percent IRAK4 remaining per sample was calculated as follows:
# Using Graphpad Prism, % IRAK4 remaining values were plotted as a function of compound concentration.
# [3] = read-out: Cellular IRAK4 HiBiT: Dmax, Table 4
# [4] = read-out: Cellular IRAK4 HiBiT: Dmax, Table 5, multiple runs
IC50 (IRAK4 [1]; Table 4) [nM],"IC50 (IRAK4 [1]; Table 5, multiple runs) [nM]",Dmax (IRAK4 [2]; [3]) [%],Dmax (IRAK4 [2]; [4]) [%],DC50 (IRAK4 [2]; Table 4) [nM],"DC50 (IRAK4 [2]; Table 5, multiple runs) [nM]",Compound
1.8,1.7,39,39,106,105,"CC(C)Nc1cc(-c2ccc3cc(C#N)cnn23)ncc1-c1nnc(N2CCN(C(=O)CNc3cccc4c3C(=O)N(C3CCC(=O)NC3=O)C4=O)CC2)s1 (centres unmarked) [Example 31, 7-(5-(5-(4-((2-(2,6-dioxopiperidin-3-yl)-1,3-dioxoisoindolin-4-yl)glycyl)piperazin-1-yl)-1,3,4-thiadiazol-2-yl)-4-(isopropylamino)pyridin-2-yl)pyrrolo[1,2-b]pyridazine-3-carbonitrile]"
2.3,2.5,37,37,152,153,"CC(C)Nc1cc(-c2ccc3cc(C#N)cnn23)ncc1-c1nnc(N2CCN(CC3CCN(c4cccc5c4n(C)c(=O)n5C4CCC(=O)NC4=O)CC3)CC2)s1 (centres unmarked) [Example 32, 7-(5-(5-(4-((1-(1-(2,6-dioxopiperidin-3-yl)-3-methyl-2-oxo-2,3-dihydro-1H-benzo[d]imidazol-4-yl)piperidin-4-yl)methyl)piperazin-1-yl)-1,3,4-thiadiazol-2-yl)-4-(isopropylamino)pyridin-2-yl)pyrrolo[1,2-b]pyridazine-3-carbonitrile]"
2.1,2.1,14,,> 10000,> 9980,"CC(C)Nc1cc(-c2ccc3cc(C#N)cnn23)ncc1-c1nnc(N2CCN(CC3CCN(c4ccc(C(=O)NC5CCC(=O)NC5=O)nc4)CC3)CC2)s1 (centres unmarked) [Example 33, 5-(4-((4-(5-(6-(3-cyanopyrrolo[1,2-b]pyridazin-7-yl)-4-(isopropylamino)pyridin-3-yl)-1,3,4-thiadiazol-2-yl)piperazin-1-yl)methyl)piperidin-1-yl)-N-(2,6-dioxopiperidin-3-yl)picolinamide]"
2,2,85,85,326,326,"CC(C)Nc1cc(-c2ccc3cc(C#N)cnn23)ncc1-c1nnc(N2CCN(CC3CCN(c4ccc(C(=O)N(C)C5CCC(=O)NC5=O)cc4)CC3)CC2)s1 (centres unmarked) [Example 34, 4-(4-((4-(5-(6-(3-cyanopyrrolo[1,2-b]pyridazin-7-yl)-4-(isopropylamino)pyridin-3-yl)-1,3,4-thiadiazol-2-yl)piperazin-1-yl)methyl)piperidin-1-yl)-N-(2,6-dioxopiperidin-3-yl)-N-methylbenzamide]"
13.4,13.4,84,85,315,287,"Cc1ncsc1-c1ccc([C@H](C)NC(=O)[C@@H]2C[C@@H](O)CN2C(=O)[C@@H](NC(=O)CCCCCCCC(=O)N2CCN(c3nnc(-c4cnc(-c5ccc6cc(C#N)cnn56)cc4NC(C)C)s3)CC2)C(C)(C)C)cc1 [Example 36, (2S,4R)-1-((S)-2-(9-(4-(5-(6-(3-cyanopyrrolo[1,2-b]pyridazin-7-yl)-4-(isopropylamino)pyridin-3-yl)-1,3,4-thiadiazol-2-yl)piperazin-1-yl)-9-oxononanamido)-3,3-dimethylbutanoyl)-4-hydroxy-N—((S)-1-(4-(4-methylthiazol-5-yl)phenyl)ethyl)pyrrolidine-2-carboxamide]"
6,6,98,98,240,220,"Cc1ncsc1-c1ccc([C@H](C)NC(=O)[C@@H]2C[C@@H](O)CN2C(=O)[C@@H](NC(=O)CCCCCC(=O)N2CCN(c3nnc(-c4cnc(-c5ccc6cc(C#N)cnn56)cc4NC(C)C)s3)CC2)C(C)(C)C)cc1 [Example 37, (2S,4R)-1-((S)-2-(7-(4-(5-(6-(3-cyanopyrrolo[1,2-b]pyridazin-7-yl)-4-(isopropylamino)pyridin-3-yl)-1,3,4-thiadiazol-2-yl)piperazin-1-yl)-7-oxoheptanamido)-3,3-dimethylbutanoyl)-4-hydroxy-N—((S)-1-(4-(4-methylthiazol-5-yl)phenyl)ethyl)pyrrolidine-2-carboxamide]"
